According to patent US8227492B2, “Sulfoxamine derivatives as factor Xa inhibitors” (Cadila Healthcare Limited, priority 2007, dated 2012):

What was measured:
Factor Xa = Factor Xa (Homo sapiens, UniProt P00742); test: In vitro Factor Xa inhibition, chromogenic assay; type: biochemical; conditions: 0.1 μM compound; for inhibition at 0.1 µM: read-out: % Factor Xa inhibition at 0.1 μM using chromogenic assay
Protocol: (§1) In vitro Factor Xa inhibitory activities were determined as per standard protocols and the results of representative compounds are provided in tables 1 and 2 below as proof of the efficacies of the novel class of compounds disclosed above.

human plasma = test: Prothrombin time doubling concentration (PTCT2) using human plasma; type: biochemical
Protocol: as §1

Chain of Factor Xa (P00742 235-488 limits assumed): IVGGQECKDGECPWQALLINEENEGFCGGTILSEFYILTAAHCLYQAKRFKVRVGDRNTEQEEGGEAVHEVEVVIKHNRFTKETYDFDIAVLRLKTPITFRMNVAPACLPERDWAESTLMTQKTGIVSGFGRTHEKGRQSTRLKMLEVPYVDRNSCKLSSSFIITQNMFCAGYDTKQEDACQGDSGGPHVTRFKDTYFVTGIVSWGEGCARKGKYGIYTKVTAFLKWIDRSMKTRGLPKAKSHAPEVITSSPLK
Chain of Factor Xa (P00742 41-179 partner limits assumed): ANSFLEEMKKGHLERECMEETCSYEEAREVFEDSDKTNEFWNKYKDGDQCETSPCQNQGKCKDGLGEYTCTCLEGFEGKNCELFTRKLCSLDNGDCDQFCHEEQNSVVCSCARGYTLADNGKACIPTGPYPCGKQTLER

Molecule | inhibition at 0.1 µM (Factor Xa) [%] | % Factor Xa inhibition at 0.1 μM using chromogenic assay (Factor Xa) [%] | PTCT2 (Conc. required to double the prothrombin time using human plasma) (human plasma) [µM]
CN(C)CC(=O)N=S(C)(=O)c1ccccc1-c1ccc(C(=O)Nc2ccc(Cl)cc2C(=O)Nc2ccc(Cl)cn2)cc1 (stereo not drawn) [Example 41, S-(2-[4-(N-{2-[N-(5-chloro-2-pyridyl)carbamoyl]-4-chlorophenyl}carbamoyl)phenyl]-phenyl)-S-methyl-N-(2-dimethylamino-acetyl)sulfoximide] | 95 |  | 1.9
CCN(CC)CC(=O)N=S(C)(=O)c1ccccc1-c1ccc(C(=O)Nc2ccc(Cl)cc2C(=O)Nc2ccc(Cl)cn2)cc1 (stereo not drawn) [Example 43, S-(2-[4-(N-{2-[N-(5-chloro-2-pyridyl)carbamoyl]-4-chlorophenyl}carbamoyl)phenyl]-phenyl)-S-methyl-N-(2-diethylamino-acetyl)sulfoximide] | 79 |  | 
CS(=O)(=O)N=S(C)(=O)c1ccccc1-c1ccc(C(=O)Nc2ccc(Cl)cc2C(=O)Nc2ccc(Cl)cn2)cc1 (stereo not drawn) [Example 14, S-(2-[4-(N-{2-[N-(5-chloro-2-pyridyl)carbamoyl]-4-chlorophenyl}carbamoyl)phenyl]-phenyl)-S-methyl-N-methanesulfonyl sulfoximide] | 84 |  | 
CS(=O)(=NCCN1CCCC1)c1ccc(C(=O)Nc2ccc(Cl)cc2C(=O)Nc2ccc(Cl)cn2)cc1 (stereo not drawn) [Example 75, S-[4-(N-{2-[N-(5-chloro(2-pyridyl))carbamoyl]-4-chlorophenyl}carbamoyl)phenyl]-S-methyl-N-(2-(pyrrolidin-1-yl)ethyl)sulfoximide] | 74 |  | 0.98
CS(=O)(=NC(=O)C1CCNCC1)c1ccccc1-c1ccc(C(=O)Nc2ccc(Cl)cc2C(=O)Nc2ccc(Cl)cn2)cc1 (stereo not drawn) [Example 26, S-(2-[4-(N-{2-[N-(5-chloro-2-pyridyl)carbamoyl]-4-chlorophenyl}carbamoyl)phenyl]-phenyl)-S-methyl-N-(4-piperidinylcarbonyl)sulfoximide] | 69 |  | 
CS(=O)(=NC(=O)CN1CCCCC1)c1ccc(C(=O)Nc2ccc(Cl)cc2C(=O)Nc2ccc(Cl)cn2)cc1 (stereo not drawn) [Example 52, S-[4-(N-{2-[N-(5-chloro(2-pyridyl))carbamoyl]-4-chlorophenyl}carbamoyl)phenyl]-S-methyl-N-[(2-piperidin-1-yl)-acetyl]sulfoximide] | 60 |  | 
CS(=O)(=NC(=O)CN1CCCCC1)c1ccccc1-c1ccc(C(=O)Nc2ccc(Cl)cc2C(=O)Nc2ccc(Cl)cn2)cc1 (stereo not drawn) [Example 53, S-(2-[4-(N-{2-[N-(5-chloro-2-pyridyl)carbamoyl]-4-chlorophenyl}carbamoyl)phenyl]-phenyl)-S-methyl-N-[(2-piperidin-1-yl)-acetyl]sulfoximide] | 79 |  | 
CS(=N)(=O)c1ccccc1-c1ccc(C(=O)Nc2ccc(Cl)cc2C(=O)Nc2ccc(Cl)cn2)cc1 (stereo not drawn) [Example 4, S-(2-[4-(N-{2-[N-(5-chloro-2-pyridyl)carbamoyl]-4-chlorophenyl}carbamoyl)phenyl]-phenyl)-S-methyl sulfoximide] | 93 |  | 4.1
CS(=N)(=O)c1ccc(C(=O)Nc2ccc(Cl)cc2C(=O)Nc2ccc(Cl)cn2)cc1 (stereo not drawn) [Example 1, S-[4-(N-{2-[N-(5-chloro(2-pyridyl))carbamoyl]-4-chlorophenyl}carbamoyl)phenyl]-S-methyl Sulfoximide] | 75 |  | 
CS(=O)(=NC(=O)c1ccncc1)c1ccccc1-c1ccc(C(=O)Nc2ccc(Cl)cc2C(=O)Nc2ccc(Cl)cn2)cc1 (stereo not drawn) [Example 24, S-(2-[4-(N-{2-[N-(5-chloro-2-pyridyl)carbamoyl]-4-chlorophenyl}carbamoyl)phenyl]-phenyl)-S-methyl-N-(4-pyridylcarbonyl)sulfoximide] | 85 |  | 

Second part, led by results:

inhibition at 0.1 µM (Factor Xa) [%] | % Factor Xa inhibition at 0.1 μM using chromogenic assay (Factor Xa) [%] | Molecule | PTCT2 (Conc. required to double the prothrombin time using human plasma) (human plasma) [µM]
66 |  | CN(C)CCN=S(C)(=O)c1ccc(C(=O)Nc2ccc(Cl)cc2C(=O)Nc2ccc(Cl)cn2)cc1 (stereo not drawn) [Example 76, S-[4-(N-{2-[N-(5-chloro(2-pyridyl))carbamoyl]-4-chlorophenyl}carbamoyl)phenyl]-S-methyl-N-[2-dimethylamino-ethyl]sulfoximide] | 1.14
56 |  | COc1ccc(NC(=O)c2ccc(S(C)(=O)=NC(=O)CN(C)C)cc2)c(C(=O)Nc2ccc(Cl)cn2)c1 (stereo not drawn) [Example 40, S-[4-(N-{2-[N-(5-chloro(2-pyridyl))carbamoyl]-4-methoxyphenyl}carbamoyl)phenyl]-S-methyl-N-(2-dimethylamino-acetyl)sulfoximide] | 1.2
64 |  | CS(=O)(=NC(=O)CN1CCCC1)c1ccc(C(=O)Nc2ccc(Cl)cc2C(=O)Nc2ccc(Cl)cn2)cc1 (stereo not drawn) [Example 50, S-[4-(N-{2-[N-(5-chloro(2-pyridyl))carbamoyl]-4-chlorophenyl}carbamoyl)phenyl]-S-methyl-N-[(2-pyrrolidin-1-yl)-acetyl]sulfoximide] | 0.68
 | 81 | S-(2-[4-(N-{2-[N-(5-chloro-2-pyridyl)carbamoyl]-4-chlorophenyl}carbamoyl)phenyl]-phenyl)-S-methyl-N-[2-(4-aminopiperidinyl)-acetyl]sulfoximide [Example 56] | 
77 |  | CCN(CC)CCN=S(C)(=O)c1ccc(C(=O)Nc2ccc(Cl)cc2C(=O)Nc2ccc(Cl)cn2)cc1 (stereo not drawn) [Example 74, S-[4-(N-{2-[N-(5-chloro(2-pyridyl))carbamoyl]-4-chlorophenyl}carbamoyl)phenyl]-S-methyl-N-(2-(diethylamino)ethyl)sulfoximide] | 1.23
82 |  | CCN1CCC(C(=O)N=S(C)(=O)c2ccccc2-c2ccc(C(=O)Nc3ccc(Cl)cc3C(=O)Nc3ccc(Cl)cn3)cc2)CC1 (stereo not drawn) [Example 28, S-(2-[4-(N-{2-[N-(5-chloro-2-pyridyl)carbamoyl]-4-chlorophenyl}carbamoyl)phenyl]-phenyl)-S-methyl-N-(1-ethyl-piperidine-4-carbonyl)sulfoximide] | 
95 |  | COc1cc(Cl)cc(C(=O)Nc2ccc(Cl)cn2)c1NC(=O)c1ccc(-c2ccccc2S(C)(=N)=O)cc1 (stereo not drawn) [Example 5, S-(2-[4-(N-{2-[N-(5-chloro-2-pyridyl)carbamoyl]-4-chloro-6-methoxyphenyl}carbamoyl)phenyl]-phenyl)-S-methyl Sulfoximide] | 0.69
70 |  | CCN(CC)CC(=O)N=S(C)(=O)c1ccc(C(=O)Nc2ccc(Cl)cc2C(=O)Nc2ccc(Cl)cn2)cc1 (stereo not drawn) [Example 42, S-[4-(N-{2-[N-(5-chloro(2-pyridyl))carbamoyl]-4-chlorophenyl}carbamoyl)phenyl]-S-methyl-N-(2-diethylamino-acetyl)sulfoximide] | 0.7
